# Test results from patent US12653809B2, “Urea, amide, and substituted heteroaryl compounds for CBL-B inhibition” (Nurix Therapeutics, Inc., priority 2019, dated 2026).
# Where two headings read alike, the source gives them in different places.
# Target: T1, Cbl-b (truncated variant, UniProt number Q13191) (Homo sapiens, UniProt Q13191)
# T1 construct: made in house
# Test: Cbl-b displacement assay (Cbl-b inhibition assay, fluorophore-labeled probe)
# Assay type: binding
# Description: As described in Biological Example 1A, a Cbl-b activity assay (Cbl-b inhibition assay) used to measure the IC50 values for Cbl-b inhibition uses a mixture comprising candidate compound, Cbl-b (truncated, with an Avitag, and biotinylated), a fluorescently-labeled E2 enzyme UbcH5B labelled with ubiquitin conjugated to BODIPY-fluorescein (UbcH5B-Ub), streptavidin-terbium, and assay buffer. In one embodiment, the Cbl-b activity assay (Cbl-b inhibition assay) used to measure IC50 for inhibition of Cbl-b uses the conditions described in Biological Example 1A with 12 nM Cbl-b. […] In another embodiment, the Cbl-b activity assay (Cbl-b inhibition assay) used to measure IC50 for inhibition of Cbl-b uses the conditions described in Biological Example 1B, with candidate compound, 0.125 nM Cbl-b (truncated, with an avitag, and biotinylated), fluorescently labelled inhibitor probe, and assay buffer. Displacement of the inhibitor probe indicates Cbl-b activity.
# Candidate compounds were evaluated for their ability to bind and inhibit Cbl-b, an E3 ubiquitin-protein ligase, as evidenced by their ability to displace a fluorophore-labeled probe (Example 168) bound to Cbl-b.
# The ability of candidate compounds to displace a known inhibitor and thereby inhibit Cbl-b activity was measured by monitoring the interaction of Cbl-b with a fluorophore-labeled probe in the presence of the candidate compound. A truncated variant of Cbl-b (UniProt number Q13191; SEQ ID NO:1) containing an Avitag at its N-terminus was co-expressed with BirA biotin ligase and purified using a standard protocol (see Dou et al., Nature Structural and Molecular Biology, 8: 982-987, 2013; Avidity LLC).
# Fluorescently-labeled inhibitor probe was synthesized and tagged with BODIPY FL (Example 168). Cbl-b displacement assays were performed in a 384-well plate at room temperature in a 10 μL reaction volume by pre-incubating 0.125 nM Cbl-b (final concentration) in an assay buffer containing 20 mM HEPES pH 7.5, 150 mM NaCl, 0.01% Triton X-100, 0.01% BSA, and 0.5 mM TCEP in the presence of a candidate compound in 1% DMSO (final concentration) for one hour. After incubation in the presence of the candidate compound, the plate was incubated for an additional one hour in the presence of an approximate EC40 binding saturation consisting of 150 nM fluorescently-labeled inhibitor probe and 2 nM Streptavidin-Terbium (Cisbio) (final concentrations). Following the one hour incubation, the plates were read for TR-FRET signal at 520/620 nm using an Envision plate reader (Perkin Elmer).
# Compounds were ranked into bins A through D as follows for IC50: A indicates <0.1 μM, B indicates 0.1 μM≤IC50<1 μM, C indicates 1 μM≤IC50<5 μM, and D indicates 5 μM≤IC50.
# [1] = Biological Example 1B, read-out: IC50 values in the Cbl-b inhibition assay of Biological Example 1B
# [2] = displacement assay, 0.125 nM Cbl-b, 150 nM fluorescently-labeled inhibitor probe, read-out: Cbl-b activity IC50
# T1 sequence (Q13191 36-427): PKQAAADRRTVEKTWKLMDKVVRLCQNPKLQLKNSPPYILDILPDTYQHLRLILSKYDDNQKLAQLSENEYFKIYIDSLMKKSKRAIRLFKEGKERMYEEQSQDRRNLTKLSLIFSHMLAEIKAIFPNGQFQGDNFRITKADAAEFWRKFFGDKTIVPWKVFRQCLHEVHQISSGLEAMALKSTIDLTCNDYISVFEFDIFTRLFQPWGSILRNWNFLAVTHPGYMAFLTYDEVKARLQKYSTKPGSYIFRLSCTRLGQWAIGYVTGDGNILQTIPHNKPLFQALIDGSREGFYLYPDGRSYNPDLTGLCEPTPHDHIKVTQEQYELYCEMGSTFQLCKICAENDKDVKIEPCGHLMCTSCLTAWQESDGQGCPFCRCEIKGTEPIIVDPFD
IC50 [1] [nM],IC50 [2] [nM],SMILES
< 100,< 100,"Cn1cnnc1CC1(c2cccc(-c3n[nH]c4c(CN5CC[C@H](F)C5)cc(C(F)(F)F)nc34)c2)COC1 [Example 114, (S)-7-((3-fluoropyrrolidin-1-yl)methyl)-3-(3-(3-((4-methyl-4H-1,2,4-triazol-3-yl)methyl)oxetan-3-yl)phenyl)-5-(trifluoromethyl)-1H-pyrazolo[4,3-b]pyridine]"
< 100,< 100,"Cn1cnnc1[C@@H](c1cccc(-c2n[nH]c3c(CN4CC[C@H](F)C4)cc(C(F)(F)F)nc23)c1)C1CCC1 [Example 115, 3-(3-((R)-cyclobutyl(4-methyl-4H-1,2,4-triazol-3-yl)methyl)phenyl)-7-(((S)-3-fluoropyrrolidin-1-yl)methyl)-5-(trifluoromethyl)-1H-pyrazolo[4,3-b]pyridine]"
